{
  "source": "patent US20130252837A1",
  "about": "“METHOD FOR MEASURING RESISTANCE OR SENSITIVITY TO DOCETAXEL” (Sanofi US, priority 2004, published 2013)",
  "system": "caspase-3",
  "experiment": "active caspase-3 levels, beadmates kit / Luminex",
  "type": "cell-based, human",
  "settings": "40 nM docetaxel, 48 hours, control siRNA cells",
  "description": "Docetaxel can cause cell death through induction of apoptosis (Kim et al., Int J Mol Med 11:799, 2003). To determine whether Pim-1 and BubR1 siRNAs could modulate a canonical apoptotic pathway in the absence and presence docetaxel, we studied activated caspase-3 levels in HCT116 cells (using a bioplex assay) (FIG. 14).\nIn an attempt to define the molecular basis for enhanced cell death associated with a Pim-1 knockdown, we examined the activation state of a key cellular pathway involved in cell survival, AKT. HCT116 were seeded at 4×10^5 cells/well on 6-well plates and the next day transfected with siRNAs at 16 nM using Lipofectamine 2000 (Invitrogen). After 24 hours, cells were untreated or treated with 5 and 40 nM docetaxel. Cells were lysed 24, 48 and 72 hours after docetaxel addition with ice-cold lysis buffer (50 mM HEPES buffer (PH7.4), 1% NP40, 2.5 mM EDTA, 100 mM sodium fluoride, 10 mM sodium PPI, protease inhibitor cocktail tablet (Roche), 2 mM sodium orthovanadate) and centrifuged at 12,000 g for 10 minutes. Lysates were then quantified for total protein levels using DC protein assay (BioRad).",
  "data": [
    {"smiles": "CC(=O)O[C@@]12CO[C@@H]1C[C@H](O)[C@@]1(C)C(=O)[C@H](O)C3=C(C)[C@@H](OC(=O)[C@H](O)[C@@H](NC(=O)OC(C)(C)C)c4ccccc4)C[C@@](O)([C@@H](OC(=O)c4ccccc4)[C@H]21)C3(C)C", "note": "[docetaxel]", "values": [
      {"measurement": "caspase-3 activity in control cells", "result": "induced"}
    ]}
  ]
}
